Structures are written as SMILES. Converted amounts (≈) assume the structure as drawn. The source made the active and inactive calls. The rule behind the calls is not given here.

IC50 and Activity data for two compounds are collected here from ChEMBL document CHEMBL1148086, “Isolation of the furan fatty acid, (8Z,11Z,14Z,17Z)-3,6-epoxyeicos-3,5,8,11,14,17-hexenoic acid from the New Zealand sponge Hymeniacidon hauraki” (J Nat Prod, 1994).

Data set [1] concerns Human alphaherpesvirus 1. As to the kind of experiment: Antiviral activity against Herpes simplex virus type 1 in african green monkey BSC1 cells after 24 hrs. In kind it is functional, organism-based.
The subject of data set [2] is P388. Put plainly: Cytotoxicity against mouse P388 cells after 48 hrs by SRB assay. In kind it is functional, cell-based. Background: In SRB staining, fixed cells bind dye roughly in proportion to their protein.
A short description of data set [3]: Cytotoxicity against african green monkey BSC1 cells after 24 hrs. The class given is cell-based. The settings on record: chlorocebus aethiops, bsc-1, 24 h.
For data set [4], the system named is Poliovirus 1. Put plainly: Antiviral activity against Polio virus type 1 in african green monkey BSC1 cells after 24 hrs. In kind it is functional, organism-based.

`CC/C=C\C/C=C\C/C=C\C/C=C\Cc1ccc(CC(=O)OC)o1`: the IC50 result in data set [1] (bsc-1), in data set [2] (p388) and in data set [4] (bsc-1) was “Not Active” throughout. In addition, the Activity entry in data set [3] was “Not Active”.
Turning to `CC/C=C\C/C=C\C/C=C\C/C=C\Cc1ccc(CC(=O)O)o1`, the result in data set [1] (BSC-1) and in data set [4] (BSC-1) was Active. In addition, the IC50 – broadly, the midpoint of a concentration-inhibition curve – in data set [2] (Mus musculus, P388, 48 h, read-out: IC50) was found to be 13.4 µg/mL (≈ 42.6 µM). In data set [3], this compound registered an Activity of 2 mm.
